The target in test [1] is T1, PKC α (Homo sapiens, UniProt P17252).
T1 construct: purchased CALBIOCHEM
The test is described as follows: PKC enzyme assay (BIOTRAK Protein kinase C enzyme assay system, 32P-ATP phosphorylation of peptide […]). It counts as biochemical. The following applies: Protein Kinase C, Human Recombinant; test substance 1 nM-10 µM; 37°C, 15 minutes; read-out: Inhibition of PKC activity IC50 PKC α. How it is done:
(§1) As the reagent for enzyme assay, BIOTRAK Protein kinase C enzyme assay system (hereinafter the system, Amersham), and as the PKC enzyme standard product, Protein Kinase C, Human Recombinant (CALBIOCHEM) were purchased and used in the assay. A substrate mixture was prepared by mixing calcium buffer (12 mM calcium acetate, 50 mM Tris/HCl pH 7.5, 0.05% (w/v) sodium azide), Lipid (0.3 mg/ml La-phosphatidyl-L-serine, […] phorbol 12-myristate 13-acetate, 50 mM Tris/HCl pH 7.5, 0.05% (w/v) sodium azide), peptide buffer (900 µM peptide […]), 50 mM Tris/HCl pH 7.5, 0.05% (w/v) sodium azide), DTT buffer (30 mM dithiothreitol, 50 mM Tris/HCl pH 7.5, 0.05% (w/v) sodium azide), and magnesium ATP buffer (1.2 mM ATP, […] pH 7.4, 72 mM magnesium chloride) all attached to the system in a ratio of 1:1:1:1:0.8 and adding [ y -32P]ATP (Amersham, cat. […] The PKC enzyme standard product was diluted with an assay buffer (10 mM Hepes pH 7.4, 0.01% Triton X-100) to a concentration of 400 ng/ml and used as the enzyme solution. The substrate mixture and a test substance (diluted to the final concentration of 1 nM-10 µM with dimethyl sulfoxide (DMSO)) were mixed at a ratio of 20:1. The enzyme solution was added in the amount equivalent to the substrate mixture and mixed, which was followed by incubation at 37°C for 15 minutes. The reaction terminator (300 mM orthophosphoric acid containing carmosine red) attached to the system was added in the amount equivalent to the substrate mixture to end the reaction, and the reaction mixture was spotted on a phosphocellulose paper (Whatman, P-81), washed twice with 75 mM orthophosphoric acid and assayed for radioactivity by BAS2000 (Fuji film).
(§2) The ratio of the radioactivity of the addition of the test substance to the addition of DMSO was determined, and IC50 was calculated from inhibition at each concentration.

For test [2], the target named is T2, PKC β II (Homo sapiens, UniProt P05771).
T2 construct: purchased CALBIOCHEM
T2 sequence (P05771 other isoform, or with tags, fused parts or gaps): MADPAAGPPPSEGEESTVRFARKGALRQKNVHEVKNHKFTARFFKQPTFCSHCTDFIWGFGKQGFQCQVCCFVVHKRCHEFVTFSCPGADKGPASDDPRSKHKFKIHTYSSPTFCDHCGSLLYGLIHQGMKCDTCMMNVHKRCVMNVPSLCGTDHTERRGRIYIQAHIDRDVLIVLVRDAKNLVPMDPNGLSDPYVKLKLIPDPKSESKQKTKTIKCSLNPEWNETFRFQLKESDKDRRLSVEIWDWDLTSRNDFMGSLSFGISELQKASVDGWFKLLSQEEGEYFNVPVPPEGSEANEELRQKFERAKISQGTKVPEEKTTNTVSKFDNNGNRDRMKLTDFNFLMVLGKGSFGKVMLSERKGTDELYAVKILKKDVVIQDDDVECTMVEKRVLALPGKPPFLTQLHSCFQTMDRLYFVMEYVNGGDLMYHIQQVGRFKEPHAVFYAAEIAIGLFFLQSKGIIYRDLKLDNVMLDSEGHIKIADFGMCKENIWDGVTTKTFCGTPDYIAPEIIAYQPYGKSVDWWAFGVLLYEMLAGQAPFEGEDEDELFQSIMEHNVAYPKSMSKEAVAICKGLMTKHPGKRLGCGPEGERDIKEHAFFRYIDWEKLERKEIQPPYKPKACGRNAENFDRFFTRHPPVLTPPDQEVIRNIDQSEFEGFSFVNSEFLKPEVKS
Described as above. It counts as biochemical. The following applies: for Ratio α/β: IC50 PKC α / IC50 PKC β II.
Text: The method for determining the PKC inhibitory activity of the compound of the present invention is explained in the following. Inasmuch as PKCβII is present in greater number in intravascular cells than PKCβI, PKCβII was mainly used here to test the enzyme activity.
as §1, §2

Where [3] appears, read: Protein Kinase C, Human Recombinant, test substance 1 nM-10 µM, 37°C, 15 minutes, read-out: Inhibition of PKC activity IC50 PKC β II.

pIC50: −log10 of the molar value. Where two headings read alike, the source gives them in different places.

The pIC50 is the negative decadic logarithm of the IC50, by convention in mol/L. For “3-[(3-chlorophenyl)amino]-4-[1-{3-(4-hydroxymethyl-imidazol-1-yl)propyl}-1H-indol-3-yl]-1H-pyrrole-2,5-dione and 3-[(3-chlorophenyl)amino]-4-[1-{3-(5-hydroxymethyl-imidazol-1-yl)propyl}-1H-indol-3-yl]-1H-pyrrole-2,5-dione [Example 2-60]”, the pIC50 in test [1] is 6.12; in test [2] (setting [3]), 7.80. For the same compound, the “Ratio α/β” value in test [2] is recorded as 48.
With `O=C1NC(=O)C(c2c[nH]c3ccccc23)=C1Nc1ccccc1` [Example 1-2, 3-(1H-indol-3-yl)-4-(phenylamino)-1H-pyrrole-2,5-dione], the pIC50 is 5.14 in test [1] and 6.65 in test [2] (setting [3]).
As for `Cc1cccc(NC2=C(c3c[nH]c4ccccc34)C(=O)NC2=O)c1` [Example 1-5, 3-(1H-indol-3-yl)-4-[(3-methylphenyl)amino]-1H-pyrrole-2,5-dione], the figures for the pIC50 in test [1] and in test [2] (setting [3]) were 5.31 and 6.82, respectively. Besides, the “Ratio α/β” value in test [2] came out at 33.
Taken in the same sequence, the figures for `O=C1NC(=O)C(c2c[nH]c3ccccc23)=C1Nc1cccc(Cl)c1` [Example 1-6, 3-[(3-chlorophenyl)amino]-4-(1H-indol-3-yl)-1H-pyrrole-2,5-dione] were 5.16, 6.70 and 35.
The corresponding values for `O=C1NC(=O)C(c2c[nH]c3ccccc23)=C1Nc1cccc(Br)c1` [Example 1-10, 3-[(3-bromophenyl)amino]-4-(1H-indol-3-yl)-1H-pyrrole-2,5-dione] are 5.08, 6.65 and 37.
With `O=C1NC(=O)C(c2c[nH]c3ccccc23)=C1Nc1cccc(F)c1` [Example 1-12, 3-[(3-fluorophenyl)amino]-4-(1H-indol-3-yl)-1H-pyrrole-2,5-dione], the pIC50 was 5.14 in test [1] and 6.60 in test [2] (setting [3]). The “Ratio α/β” value in test [2] amounted to 29.
The corresponding values for `O=C1NC(=O)C(c2cn(CCCO)c3ccccc23)=C1Nc1ccccc1` [Example 2-1, 3-[1-(3-hydroxypropyl)-1H-indol-3-yl]-4-(phenylamino)-1H-pyrrole-2,5-dione] are 5.79, 7.52 and 54.
Taken in the same sequence, the figures for `Cc1cccc(NC2=C(c3cn(CCCO)c4ccccc34)C(=O)NC2=O)c1` [Example 2-2, 3-[1-(3-hydroxypropyl)-1H-indol-3-yl]-4-[(3-methylphenyl)amino]-1H-pyrrole-2,5-dione] were 5.54, 7.39 and 70.
The corresponding values for `O=C1NC(=O)C(c2cn(CCCO)c3ccccc23)=C1Nc1cccc(Cl)c1` [Example 2-3, 3-[(3-chlorophenyl)amino]-4-[1-(3-hydroxypropyl)-1H-indol-3-yl]-1H-pyrrole-2,5-dione] are 5.41, 7.34 and 85.
As for `O=C1NC(=O)C(c2cn(CCO)c3ccccc23)=C1Nc1ccccc1` [Example 2-4, 3-[1-(2-hydroxyethyl)-1H-indol-3-yl]-4-(phenylamino)-1H-pyrrole-2,5-dione], the pIC50 in test [1] was 5.24; in test [2] (setting [3]), 7.14. For the same compound, the “Ratio α/β” value in test [2] amounted to 79.
Regarding `O=C1NC(=O)C(c2cn(CCCCO)c3ccccc23)=C1Nc1ccccc1` [Example 2-5, 3-[1-(4-hydroxybutyl)-1H-indol-3-yl]-4-(phenylamino)-1H-pyrrole-2,5-dione], the pIC50 in test [1] is 5.74; in test [2] (setting [3]), 7.52. Also, the “Ratio α/β” value in test [2] is reported as 61.
As for `O=C1NC(=O)C(c2cn(CCCO)c3ccccc23)=C1Nc1ccc(Cl)c(Cl)c1` [Example 2-6, 3-[(3,4-dichlorophenyl)amino]-4-[1-(3-hydroxypropyl)-1H-indol-3-yl]-1H-pyrrole-2,5-dione], the pIC50 in test [1] is 5.48; in test [2] (setting [3]), 7.22. For the same compound, the “Ratio α/β” value in test [2] amounted to 55.
The corresponding values for `CC(=O)OCCn1cc(C2=C(Nc3ccccc3)C(=O)NC2=O)c2ccccc21` [Example 2-7, 3-[1-(2-acetoxyethyl)-1H-indol-3-yl]-4-(phenylamino)-1H-pyrrole-2,5-dione] are 5.50, 7.25 and 57.
`CN(C)CCCn1cc(C2=C(Nc3ccccc3)C(=O)NC2=O)c2ccccc21` [Example 2-8, 3-[1-(3-dimethylaminopropyl)-1H-indol-3-yl]-4-(phenylamino)-1H-pyrrole-2,5-dione]: the pIC50 in test [1] was 6.34; in test [2] (setting [3]), 7.92. In addition, in test [2], the “Ratio α/β” value was determined as 38.
Taken in the same sequence, the figures for `CN(C)CCn1cc(C2=C(Nc3ccccc3)C(=O)NC2=O)c2ccccc21` [Example 2-9, 3-[1-(2-dimethylaminoethyl)-1H-indol-3-yl]-4-(phenylamino)-1H-pyrrole-2,5-dione] were 5.67, 7.55 and 77.
Taken in the same sequence, the figures for `CN(C)CCCCn1cc(C2=C(Nc3ccccc3)C(=O)NC2=O)c2ccccc21` [Example 2-10, 3-[1-(4-dimethylaminobutyl)-1H-indol-3-yl]-4-(phenylamino)-1H-pyrrole-2,5-dione] were 6.14, 7.82 and 49.
The corresponding values for `Cc1cccc(NC2=C(c3cn(CCCN(C)C)c4ccccc34)C(=O)NC2=O)c1` [Example 2-11, 3-[1-(3-dimethylaminopropyl)-1H-indol-3-yl]-4-[(3-methylphenyl)amino]-1H-pyrrole-2,5-dione] are 6.14, 7.82 and 49.
For `CN(C)CCCn1cc(C2=C(Nc3cccc(Cl)c3)C(=O)NC2=O)c2ccccc21` [Example 2-12, 3-[1-(3-dimethylaminopropyl)-1H-indol-3-yl]-4-[(3-chlorophenyl)amino]-1H-pyrrole-2,5-dione], the pIC50 is 6.25 in test [1] and 8.00 in test [2] (setting [3]). Moreover, the “Ratio α/β” value in test [2] is 56.
Taken in the same sequence, the figures for `CCN(CC)CCCn1cc(C2=C(Nc3ccccc3)C(=O)NC2=O)c2ccccc21` [Example 2-13, 3-[1-(3-diethylaminopropyl)-1H-indol-3-yl]-4-(phenylamino)-1H-pyrrole-2,5-dione] were 5.90, 7.68 and 60.
As to `CN(C)CCN(C)CCCn1cc(C2=C(Nc3ccccc3)C(=O)NC2=O)c2ccccc21` [Example 2-14, 3-[1-{3-[N-(2-dimethylaminoethyl)-N-methylamino)propyl}-1H-indol-3-yl]-4-(phenylamino)-1H-pyrrole-2,5-dione], the pIC50 was 5.55 in test [1] and 7.40 in test [2] (setting [3]). In addition, the “Ratio α/β” value in test [2] amounted to 70.
The corresponding values for `CCN(CCCn1cc(C2=C(Nc3ccccc3)C(=O)NC2=O)c2ccccc21)CCOC` [Example 2-15, 3-[1-{3-[N-ethyl-N-(2-methoxyethyl)amino]propyl}-1H-indol-3-yl]-4-(phenylamino)-1H-pyrrole-2,5-dione] are 5.57, 7.46 and 77.
Taken in the same sequence, the figures for `CN(C)CCN(C)CCn1cc(C2=C(Nc3ccccc3)C(=O)NC2=O)c2ccccc21` [Example 2-16, 3-[1-{2-[N-(2-dimethylaminoethyl)-N-methylamino]ethyl}-1H-indol-3-yl]-4-(phenylamino)-1H-pyrrole-2,5-dione] were 5.20, 7.10 and 79.
Taken in the same sequence, the figures for `CCN(CCCn1cc(C2=C(Nc3ccccc3)C(=O)NC2=O)c2ccccc21)Cc1ccccc1` [Example 2-17, 3-[1-{3-(N-benzyl-N-ethylamino)propyl}-1H-indol-3-yl)-4-(phenylamino)-1H-pyrrole-2,5-dione] were 5.33, 6.99 and 45.
As for `O=C1NC(=O)C(c2cn(CCCN3CCCCCC3)c3ccccc23)=C1Nc1ccccc1` [Example 2-23, 3-[1-(3-azacycloheptan-1-ylpropyl)-1H-indol-3-yl]-4-(phenylamino)-1H-pyrrole-2,5-dione], in test [2], the pIC50 is 8.00.

For the origin of these results see patent publication EP1120414A1, “DISUBSTITUTED MALEIMIDE COMPOUNDS AND MEDICINAL UTILIZATION THEREOF” (Japan Tobacco Inc., priority 1998, dated 2000).
